The results in this text go back to PubChem BioAssay AID1996.

The structures appear in SMILES notation. In brackets after ≈: the same amount, converted by molar mass.

For this data set the following is noted: buffer; pH 7.4; 200.0 µM.
`CCOc1ccc(CCNC(=O)c2cc(C)on2)cc1OCC` displayed a kinetic solubility of over 47.8 µg/mL.
As for `Cc1cc(C)c(C#N)c(SCC(=O)C2CC2)n1`, the solubility (kinetic) was 3.6 µg/mL (≈ 14.6 µM).
Regarding `CC(C)CN1CCN(Cc2ccccc2C(F)(F)F)CC1CCO` (centres undefined), the solubility (kinetic) came to 48.7 µg/mL (≈ 141 µM).
Next, `COCCSc1ccccc1C(=O)Nc1ccccc1C(C)C`: 48.9 µg/mL (≈ 148 µM); `CCOC(=O)c1cc2c(ccn2C)n1Cc1ccc(Cl)cc1`: 1.3 µg/mL (≈ 4.1 µM).
Then `CN(CC(=O)Nc1ccccc1Cl)C(=O)COC(=O)c1ccc([N+](=O)[O-])s1`, with over 61.8 µg/mL; and `Clc1cccc(Cl)c1CN1CCN(c2ncccn2)CC1`, with 17.2 µg/mL (≈ 53.2 µM).
Next, `CC(=O)N1c2ccccc2C(C)=CC1(C)C`: 8.1 µg/mL (≈ 37.6 µM); `O=C(O)C1C2CCC(O2)C1C(=O)Nc1ccc(Cl)cc1F` (centres undefined): over 47.1 µg/mL.
For `CCCCCCCN=C(C)c1ccccc1O`, the kinetic solubility turned out to be 13.9 µg/mL (≈ 59.6 µM).
Then `COc1ccccc1C(=O)OCC(=O)NC(C)CCc1ccccc1` (centres undefined), with over 51.2 µg/mL; and `CNc1ccc(C(=O)OCC(=O)NC(=O)NC2CCCCC2)cc1[N+](=O)[O-]`, with 1.7 µg/mL (≈ 4.49 µM).
Turning to `CCCCN(C(=O)c1ccco1)C1CCS(=O)(=O)C1` (centres undefined), the solubility (kinetic) is over 42.8 µg/mL.
Then `COC(=O)c1ccc(C(=O)N(Cc2ccccc2)c2ccccc2)cc1`, with 10.7 µg/mL (≈ 31 µM).
Consider `Brc1cccc(Nc2nc(-c3cccnc3)cs2)c1`, for which the kinetic solubility was under 0.2 µg/mL.
Next, `Cc1ccnc(Nc2nc(-c3ccc(O)c(O)c3)cs2)c1`: 8.7 µg/mL (≈ 29.1 µM); `CNc1c(-n2cc(C(=O)OC)c(C(=O)OC)c2C(=O)OC)c(=O)n(C)c(=O)n1C`: 56.7 µg/mL (≈ 139 µM).
`Cc1cc(NC(=O)CSc2c[nH]c3ccccc23)no1` returned a kinetic solubility of over 43.1 µg/mL.
Then `O=C(NCCCN1CCCC1=O)Nc1ccccc1F`, with over 41.9 µg/mL.
`COc1ccc(C(C)=O)cc1COc1cccc2cccnc12` returned a kinetic solubility of 15.7 µg/mL (≈ 51.1 µM).
The compound `CC(C)(C)NCC(O)c1cc(O)cc(O)c1.O=S(=O)(O)O` (centres undefined) had a solubility (kinetic) of over 41.1 µg/mL.
Next, `CCOC(=O)c1ccc(NC(=O)C2C3CCCCC32)cc1` (centres undefined): under 0.6 µg/mL; `COc1ccc(OC)c(COC(=O)c2cccc(S(=O)(=O)N3CCCCC3)c2)c1`: 10.1 µg/mL (≈ 24.1 µM).
Next, `COc1ccc(CNC(=O)c2ccc3ccccc3n2)cc1`: 18.4 µg/mL (≈ 62.9 µM); `CC1CN(C(=S)Nc2cccc(F)c2)CC(C)O1` (centres undefined): 40.2 µg/mL (≈ 150 µM); `NCC(c1ccccc1Cl)c1c[nH]c2ccccc12` (centres undefined): over 40.6 µg/mL.
As to `COc1ccc(S(=O)(=O)N2CCCCC2)cc1NC(=O)Cn1cnc2c1c(=O)n(C)c(=O)n2C`, the kinetic solubility turned out to be 28.5 µg/mL (≈ 58.1 µM).
In turn, `NC(=O)/C(=C/c1cccnc1)NC(=O)c1ccccc1` showed a kinetic solubility of over 40.1 µg/mL.
Then `Cc1csc(C)[n+]1CC(=O)c1ccccc1.[Br-]`, with over 46.8 µg/mL; and `CCCCn1c(O)c(/C=C2/C=CC=N2)c(=O)[nH]c1=O`, with 5.1 µg/mL (≈ 19.5 µM).
Next, `O=C(COc1ccccc1[N+](=O)[O-])OCC(=O)c1ccc(Br)s1`: 59.9 µg/mL (≈ 150 µM).
Then `CC(C)(C)c1ccc(-c2noc(CCC(=O)N3CCOCC3)n2)cc1`, with 44.2 µg/mL (≈ 129 µM).
On to `CCOC(=O)C(=O)Nc1ccccc1C(=O)OC`, for which the kinetic solubility is over 37.7 µg/mL.
The compound `CC(C)(C)c1ccc(-c2noc(-c3ccno3)n2)cc1` yielded a solubility (kinetic) of under 0.2 µg/mL.
Next, `COc1cc(OC)c(C=O)c(OC(=O)N(C)C)c1`: 35.8 µg/mL (≈ 141 µM).
In the case of `CN(Cc1cnccn1)Cc1nc(Cc2ccccc2Cl)no1`, the solubility (kinetic) came out at 43.9 µg/mL (≈ 133 µM).
Then `CCc1ccc(NC(=O)NCc2cccnc2)cc1`, with over 38.3 µg/mL; and `CCOc1ccc(S(=O)(=O)N2CN3CCN(C3)C2)cc1`, with over 44.6 µg/mL; and `COC(=O)Cn1c(C(O)c2ccccc2)nc2ccccc21` (centres undefined), with over 44.4 µg/mL.
In turn, `CC(C)(C)C(=O)Nc1ccc(F)cc1[N+](=O)[O-]` came in with a kinetic solubility of 13.8 µg/mL (≈ 57.4 µM).
With `Cc1cc(OCC(=O)N(C)Cc2ccccc2)ccc1Br`, the solubility (kinetic) stood at 22.7 µg/mL (≈ 65.2 µM).
Then `CN(CCC1CCOCC1)Cc1nc(Cc2ccccc2F)no1`, with over 50 µg/mL.
Next, `CC(C)c1ccc(OCC(=O)Nc2ccc3oc(=O)ccc3c2)cc1`: under 0.7 µg/mL.
Then `O=C(NC(Cc1c[nH]c2ccccc12)C(=O)O)c1ccc2c(c1)OCO2` (centres undefined), with over 52.9 µg/mL; and `Cc1ccccc1OCC(=O)NCCCNC(=O)c1ccccn1`, with over 49.1 µg/mL.
Turning to `CCOc1ccc2c(c1)nc(C)n2C`, the solubility (kinetic) was over 28.5 µg/mL.
Then `CC(Sc1nc(N)cc(N)n1)C(=O)NCC1CCCO1` (centres undefined), with over 44.6 µg/mL.
Next, `O=C1NC(=Nc2cccc([N+](=O)[O-])c2)SC1(CO)CO`: 41.2 µg/mL (≈ 139 µM); `Cc1cc(C)nc(NC(=O)c2cccs2)n1`: over 35 µg/mL; `CCOC(=O)Nc1ccc2c(c1)N(C(=O)CCN1CCOCC1)c1ccccc1S2`: over 64.1 µg/mL.
The compound `Oc1ccccc1C(=S)N1CCN(c2cccc(Cl)c2)CC1` showed a kinetic solubility of 20 µg/mL (≈ 60.1 µM).
`Cc1cc(C)cc(OCC(=O)O/N=C(\N)c2ccccc2Cl)c1` came in with a solubility (kinetic) of 13.3 µg/mL (≈ 40 µM). Against the preceding compound, the solubility kinetic is about 1.5-fold lower.
Then `Nc1nc(Oc2ccc(F)cc2)c(Br)c(=O)[nH]1`, with over 45 µg/mL; and `CC(=O)Nc1ccc(NC(=O)Nc2cccc(Cl)c2)cc1`, with 1.4 µg/mL (≈ 4.61 µM); and `Cc1cc(C)nc(/N=C(\N)Nc2ccc(OCCC(C)C)cc2)n1`, with over 49.1 µg/mL.
In turn, `COc1cccc(NC(=O)c2nc(S(C)(=O)=O)ncc2Cl)c1` registered a solubility (kinetic) of 33.6 µg/mL (≈ 98.3 µM).
Compound `O=C(O)CC(c1ccc(Cl)cc1)N1Cc2ccccc2C1=O` (centres undefined) displayed a solubility (kinetic) of over 47.4 µg/mL.
`Cc1ccc(C(=O)NCC(=O)OCc2c(F)cccc2Cl)s1` showed a solubility (kinetic) of 9.2 µg/mL (≈ 26.9 µM).
Then `CCCCC(=O)OCC(=O)c1[nH]c(C)c(C(C)=O)c1C`, with 36.9 µg/mL (≈ 132 µM); and `O=C(C(=O)N1CCCC1)c1c[nH]c2ccccc12`, with over 36.3 µg/mL.
Consider `CC(=O)c1c(C)[nH]c(C(=O)COC(=O)C2(C)CC2(Cl)Cl)c1C` (centres undefined), for which the solubility (kinetic) is 11.9 µg/mL (≈ 34.4 µM).
`Cc1cc(C(=O)Nc2ccccc2C)on1` had a solubility (kinetic) of over 32.4 µg/mL.
Then `CCN(Cc1ccncc1)C(=S)Nc1ccc(Cl)cc1`, with over 45.9 µg/mL; and `COc1cccc(N2CCN(c3nc(C)c(C)c(=O)[nH]3)CC2)c1`, with 25.9 µg/mL (≈ 82.4 µM).
Next, `COc1ccc(NC(=O)c2cccnc2N2CCOCC2)cc1`: over 47 µg/mL.
Then `Cc1cc(Br)cc(Cl)c1OC(=O)c1cnccn1`, with 47.4 µg/mL (≈ 145 µM); and `Cc1cc2nc(-c3ccc(=O)[nH]c3)n(C)c2cc1C`, with 14.1 µg/mL (≈ 55.7 µM); and `CN(C)CCC(=O)c1ccc(F)cc1.Cl`, with over 34.8 µg/mL.
`O=C(Nc1cccnc1)Nc1cccc(F)c1`: the solubility (kinetic) is over 34.7 µg/mL.
`CCC(=O)c1c(NC)cc(C)oc1=O` gave a kinetic solubility of over 29.3 µg/mL.
`CCOC(=O)c1ccc2nc(C)c(C)nc2c1` yielded a solubility (kinetic) of 31.3 µg/mL (≈ 136 µM).
`CC(Sc1nc2sccc2c(=O)n1-c1ccccc1)C(N)=O` (centres undefined): the solubility (kinetic) was determined as 43.5 µg/mL (≈ 131 µM).
Then `Cc1ccc(S(=O)(=O)N(C)C)cc1NC(=O)Nc1ccccc1F`, with 1.7 µg/mL (≈ 4.84 µM).
`CN(C)C(CNC(=O)CCOc1ccccc1)c1ccco1` (centres undefined) registered a kinetic solubility of 43 µg/mL (≈ 142 µM).
For the compound `CC(C)(C)OC(=O)CN1C(=O)NC2(CCCc3ccccc32)C1=O` (centres undefined), the solubility (kinetic) was over 49.6 µg/mL.
Regarding `Cc1ccccc1C(=O)NC(=S)NCc1ccccc1`, the solubility (kinetic) was under 0.3 µg/mL.
`Cn1c(=O)oc2cc(S(=O)(=O)Nc3ccc(F)cc3)ccc21` showed a solubility (kinetic) of 7.2 µg/mL (≈ 22.3 µM).
Then `Cc1ccc(C)c(NC(=O)CN(C)C(=O)c2cccc(Oc3ccccc3)c2)c1`, with 31.1 µg/mL (≈ 80.1 µM); and `COc1ccc(Cn2c(C(C)C)nc3sc4ccccc4c(=O)c3c2=O)cc1`, with under 0.4 µg/mL.
Then `CC1C(=O)N2CCCc3cc(NC(=O)C(=O)NCc4cccnc4)cc1c32` (centres undefined), with over 54.7 µg/mL.
As to `CC(C)(C)C(=O)Nc1ccc(-c2cc3cc(Cl)ccc3o2)cc1`, the solubility (kinetic) turned out to be 0.8 µg/mL (≈ 2.44 µM).
Next, `N#Cc1cnc(Nc2ccc(F)cc2)nc1N`: 4.7 µg/mL (≈ 20.5 µM); `COC(=O)/N=C(/Cc1ccc(OC)cc1)c1ccc(OC)cc1`: 43.6 µg/mL (≈ 139 µM); `Cc1ccc(S(=O)(=O)CCN2CCN(c3ccccn3)CC2)cc1`: over 51.8 µg/mL.
In turn, `O=C(Nc1ccc2c(c1)CCC2)c1ccc(Cl)nc1` yielded a solubility (kinetic) of 7.8 µg/mL (≈ 28.6 µM).
In the case of `Cc1cccc2c(C(=O)O)c3cccc(C)c3nc12`, the solubility (kinetic) is 34 µg/mL (≈ 135 µM).
Regarding `CC(C)(C)c1cc(C(=S)N2CCCC2)cc(C(C)(C)C)c1O`, the solubility (kinetic) was 4.7 µg/mL (≈ 14.7 µM).
Then `CCCCn1c(CCNC(=O)c2ccco2)nc2ccccc21`, with over 46.7 µg/mL; and `Cc1cccc(NC(=O)c2ccc3c(c2)CCN3S(C)(=O)=O)c1`, with 37.5 µg/mL (≈ 113 µM); and `CCCN1C(=O)/C(=C/c2ccc3c(c2)OCO3)NC1=S`, with 1.9 µg/mL (≈ 6.54 µM).
Take `COC(=O)CSc1ncnc2c(C)csc12`: the kinetic solubility was found to be 29.9 µg/mL (≈ 118 µM).
Then `CC1=CCC2C(=O)N(c3ccc(OC(=O)c4ccco4)cc3)C(=O)C2C1` (centres undefined), with 21.5 µg/mL (≈ 61.2 µM); and `CCOc1ccccc1CN1CCN(Cc2ccon2)CC1CCO` (centres undefined), with 48.9 µg/mL (≈ 142 µM).
Next, `O=C(c1cc2cc([N+](=O)[O-])ccc2oc1=O)N1CCN(C2CCCCC2)CC1`: over 57.8 µg/mL.
Then `CCOc1nc(C)cc(C)c1S(=O)(=O)c1cccc(Cl)c1`, with 6.2 µg/mL (≈ 19 µM); and `Cc1ccccc1OCC(=O)Nc1cnn(CCCC(=O)O)c1`, with over 47.6 µg/mL; and `Cc1ccc(CNc2cnccn2)s1`, with 30 µg/mL (≈ 146 µM).
In turn, `COCCNC(=O)c1cc2cc3ccc(OC)cc3nc2o1` yielded a solubility (kinetic) of 42.1 µg/mL (≈ 140 µM).
Take `O=C(CCl)N1c2ccccc2SCC1c1ccccc1` (centres undefined): the solubility (kinetic) was 2.7 µg/mL (≈ 8.89 µM).
Next, `COc1cc(/C=C/C(=O)OCC(=O)Nc2cc(S(=O)(=O)N3CCOCC3)ccc2Cl)cc(OC)c1OC`: 5.3 µg/mL (≈ 9.55 µM).
Then `COc1ccc(CNC(=O)C2CCN(C(=O)Cc3ccccc3)CC2)cc1`, with over 55 µg/mL; and `O=C(Nc1nc2ccccc2[nH]1)C1CCCC1`, with 4 µg/mL (≈ 17.4 µM); and `Cc1c(-c2ccccc2)nc(N)c(C#N)c1-c1cccnc1`, with 5 µg/mL (≈ 17.5 µM).
Next, `Cc1cc(C)nc(Nc2ccccc2Cl)n1.Cl`: 10.4 µg/mL.

One may read the kinetic solubility as solubility judged after dilution from a stock solution rather than from solid.
